Patent publication US20220054493A1, “INHIBITORS OF NGAL PROTEIN” (INSERM (INSTITUT NATIONAL DE LA SANTÉ ET DE LA RECHERCHE …, priority 2019, published 2022)
Each block holds one compound with its values, some of them ahead of it.

Tests used:
CaCo2 cell line = test: Bi-CaCo2 permeability assay; type: in vitro ADME, human
Method: (§1) The Caco-2 Permeability assay uses an established method for predicting the in vivo absorption of drugs across the gut wall. The transport rate across the CaCo2 cell line is measured. This cell line has a human colon carcinoma origin and resembles to the intestinal epithelia (a polarised monolayer with microvilli and intercellular tight junctions).
(§2) Bidirectional transport (apical to basolateral (A-B) and basolateral to apical (B-A)) across the cell monolayer were determined allowing to calculate the efflux ratio (an indicator as to whether a compound undergoes active efflux).

NGAL [1] = target: T1, NGAL (Homo sapiens, UniProt P80188); test: NGAL-induced proliferation of human cardiac fibroblast cells (MTT); type: cell-based; conditions: NGAL 10 ng/ml; FIG. 3
T1 construct: purchased R&D Systems
Method: (§3) Cell Culture Human cardiac fibroblasts (primary culture) were obtained from Promocell and maintained in medium (Fibroblast Media 3). Cells were cultured according to the manufacturer's instructions and used between passages 5 and 7. Cells were stimulated with aldosterone (10^-8 M, Sigma) or recombinant hNGAL (500 ng/mL, R&D Systems) for 24 h for protein analysis. Mouse kidney fibroblasts (MKF), were isolated from Wild Type (WT) mice. Briefly, mice 7 to 8 weeks were sacrificed by cervical dislocation and kidneys were cleaned and rinsed in cold DPBS (Dulbecco's Phosphate-Buffered Saline). The renal cortex was minced and incubated in Dulbecco's modified eagle medium/Nutrient mixture F-12 (DMEM/F12, Sigma) containing 1 mg/mL collagenase A (Roche) during 25 minutes at 37° C. The digestion was inactivated by adding culture medium (DMEM/F12+10% FBS) then the cell suspension was passed through a 100-μm cell strainer. After centrifugation, the pellet (containing MKF) was diluted with culture medium then plated in 75 cm^2 culture flask. After 24 hours MKF were washed with DPBS before replacement of fresh culture medium. Thereafter, culture medium was changed every 48 hours. Once 70-80% confluent, MKF were trypsinized and plated in 12 or 6-well plates. For experimental use, MKF were starved with culture medium containing only 3% FBS. MKF were treated with mNGAL (500 ng/mL, R&D Systems) for 24 h for gene expression analysis.
Cell proliferation was assessed using the MTT Proliferation Assay (Sigma).
Results are shown on FIG. 3.

NGAL [2] = target: T1, NGAL; test: NGAL-induced IL6 secretion in human cardiac fibroblasts (ELISA); type: cell-based; conditions: for Activity: NGAL-induced IL6 secretion (NGAL 10 ng/ml), Control = 1.00 ± 0.03
Method: as §3
(§4) NGAL, IL6 and collagen type I concentrations were measured in cardiac tissue and cell supernatants, respectively, by ELISA according to the manufacturer's instructions (R&D Systems).
The inhibitory activity of the compounds was evaluated on the NGAL-induced IL6 secretion (NGAL 10 ng/ml) in human cardiac fibroblasts.
Inhibitory activities of 23 second generation compounds derived from GPZ614741 and GPZ058225 were evaluated on the NGAL-induced IL6 secretion (NGAL 10 ng/ml) in human cardiac fibroblasts.

NGAL [3] = target: T1, NGAL; test: NGAL-induced Col 1 secretion in human cardiac fibroblasts (ELISA); type: cell-based; conditions: FIGS. 1 and 2 panel B
Method: as §3, with “After 24 hours MKF were washed with DPBS before replacement of fresh culture medium. Thereafter, culture medium was changed every 48 hours. Once 70-80% confluent, MKF were trypsinized and plated in 12 or 6-well plates. For experimental use, MKF were starved with culture medium containing only 3% FBS. MKF were treated with mNGAL (500 ng/mL, R&D Systems) for 24 h for gene expression analysis.” left out
as §4
(§5) The inhibitory activity of the compounds was evaluated on the NGAL-induced IL6 secretion (NGAL 10 ng/ml) in human cardiac fibroblasts. […]

NGAL [4] = target: T1, NGAL; test: NGAL-induced profibrotic marker synthesis in human cardiac fibroblasts (western blot); type: cell-based; conditions: FIGS. 1 and 2 panel C
Method: (§6) Cell Culture Human cardiac fibroblasts (primary culture) were obtained from Promocell and maintained in medium (Fibroblast Media 3). Cells were cultured according to the manufacturer's instructions and used between passages 5 and 7. Cells were stimulated with aldosterone (10^-8 M, Sigma) or recombinant hNGAL (500 ng/mL, R&D Systems) for 24 h for protein analysis. Mouse kidney fibroblasts (MKF), were isolated from Wild Type (WT) mice. Briefly, mice 7 to 8 weeks were sacrificed by cervical dislocation and kidneys were cleaned and rinsed in cold DPBS (Dulbecco's Phosphate-Buffered Saline). The renal cortex was minced and incubated in Dulbecco's modified eagle medium/Nutrient mixture F-12 (DMEM/F12, Sigma) containing 1 mg/mL collagenase A (Roche) during 25 minutes at 37° C. […]
(§7) Total protein aliquots of 20 μg were prepared from cardiac homogenates and electrophoresed on SDS polyacrylamide gels and transferred to Hybond-c Extra nitrocellulose membranes (Amersham Biosciences). […] After densitometric analyses, optical density values were expressed as arbitrary units. Results are expressed as an n-fold increase over the values of the control group in densitometric arbitrary units.
as §5

[5] = system: aldosterone-induced profibrotic marker synthesis; test: Aldosterone-induced profibrotic marker synthesis in human cardiac fibroblasts; type: cell-based; conditions: FIGS. 1 and 2 panel D
Method: as §6, with “Saline).” for “Saline). The renal cortex was minced and incubated in Dulbecco's modified eagle medium/Nutrient mixture F-12 (DMEM/F12, Sigma) containing 1 mg/mL collagenase A (Roche) during 25 minutes at 37° C.”
as §7, §4, §5

[6] = system: isolated hepatocytes from swiss mice; test: Hepatotoxicity, MTT colorimetric assay; type: cell-based
Method: (§8) Two specific toxicity assays have been performed to assess hepatoxicity and cardiotoxicity. Hepatotoxicity was evaluated in isolated hepatocytes from swiss mice and determined by the MTT colorimetric assay. Cardiotoxicity was evaluated using the commercially available Predictor hERG fluorescence polarization kit (Thermo Fisher Scientific). Several ADME assays have been carried out on the compounds generated throughout the project. The following experiments were undertaken: Stability in human microsomes, binding to human plasma protein, and CYP3A4 inhibition assay (Vivid CYP3A4 assay, Thermo Fisher Scientific). Physico-chemical properties were also assessed such as aqueous solubility and chemical stability.

hERG channel = target: T2, hERG channel (Homo sapiens, UniProt Q12809); test: Cardiotoxicity, Predictor hERG fluorescence polarization kit; type: binding
T2 construct: purchased Thermo Fisher Scientific
Method: as §8

human microsomes = test: Stability in human microsomes; type: in vitro ADME
Method: as §8

[7] = Binding to human plasma protein; type: in vitro ADME; conditions: human, human plasma protein; read-out: hPPB (converted)
Method: as §8

human plasma protein = test: Binding to human plasma protein; type: in vitro ADME
Method: as §8

CYP3A4 = target: T3, CYP3A4 (Homo sapiens, UniProt P08684); test: CYP3A4 inhibition assay (Vivid CYP3A4 assay); type: in vitro ADME
T3 construct: purchased Thermo Fisher Scientific
Method: as §8

Aqueous solubility = type: physicochemical
Method: as §8

Chemical stability = type: physicochemical
Method: as §8

[8] = Bi-CaCo2 permeability assay; type: in vitro ADME, human; conditions: human, Caco-2; efflux ratio
Method: as §1, §2

T1 sequence (P80188 21-198): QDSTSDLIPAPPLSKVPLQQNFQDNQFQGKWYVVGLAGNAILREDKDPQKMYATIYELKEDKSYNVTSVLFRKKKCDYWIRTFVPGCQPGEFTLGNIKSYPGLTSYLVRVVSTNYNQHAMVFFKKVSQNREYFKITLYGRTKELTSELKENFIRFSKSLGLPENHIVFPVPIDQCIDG
T3 sequence (P08684 whole entry): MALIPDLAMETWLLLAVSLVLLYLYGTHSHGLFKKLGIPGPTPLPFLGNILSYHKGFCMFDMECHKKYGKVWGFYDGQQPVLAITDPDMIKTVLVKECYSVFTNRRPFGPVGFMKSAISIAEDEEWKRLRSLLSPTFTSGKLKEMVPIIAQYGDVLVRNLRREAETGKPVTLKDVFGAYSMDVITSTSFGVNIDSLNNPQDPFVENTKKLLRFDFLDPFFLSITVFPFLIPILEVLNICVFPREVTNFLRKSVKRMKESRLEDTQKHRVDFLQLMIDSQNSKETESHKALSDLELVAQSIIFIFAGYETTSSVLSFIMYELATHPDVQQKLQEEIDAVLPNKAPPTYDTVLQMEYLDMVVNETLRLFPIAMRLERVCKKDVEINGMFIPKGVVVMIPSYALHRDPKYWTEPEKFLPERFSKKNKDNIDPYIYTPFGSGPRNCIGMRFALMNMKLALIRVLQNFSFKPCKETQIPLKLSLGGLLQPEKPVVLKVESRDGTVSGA
T2 sequence (Q12809 whole entry): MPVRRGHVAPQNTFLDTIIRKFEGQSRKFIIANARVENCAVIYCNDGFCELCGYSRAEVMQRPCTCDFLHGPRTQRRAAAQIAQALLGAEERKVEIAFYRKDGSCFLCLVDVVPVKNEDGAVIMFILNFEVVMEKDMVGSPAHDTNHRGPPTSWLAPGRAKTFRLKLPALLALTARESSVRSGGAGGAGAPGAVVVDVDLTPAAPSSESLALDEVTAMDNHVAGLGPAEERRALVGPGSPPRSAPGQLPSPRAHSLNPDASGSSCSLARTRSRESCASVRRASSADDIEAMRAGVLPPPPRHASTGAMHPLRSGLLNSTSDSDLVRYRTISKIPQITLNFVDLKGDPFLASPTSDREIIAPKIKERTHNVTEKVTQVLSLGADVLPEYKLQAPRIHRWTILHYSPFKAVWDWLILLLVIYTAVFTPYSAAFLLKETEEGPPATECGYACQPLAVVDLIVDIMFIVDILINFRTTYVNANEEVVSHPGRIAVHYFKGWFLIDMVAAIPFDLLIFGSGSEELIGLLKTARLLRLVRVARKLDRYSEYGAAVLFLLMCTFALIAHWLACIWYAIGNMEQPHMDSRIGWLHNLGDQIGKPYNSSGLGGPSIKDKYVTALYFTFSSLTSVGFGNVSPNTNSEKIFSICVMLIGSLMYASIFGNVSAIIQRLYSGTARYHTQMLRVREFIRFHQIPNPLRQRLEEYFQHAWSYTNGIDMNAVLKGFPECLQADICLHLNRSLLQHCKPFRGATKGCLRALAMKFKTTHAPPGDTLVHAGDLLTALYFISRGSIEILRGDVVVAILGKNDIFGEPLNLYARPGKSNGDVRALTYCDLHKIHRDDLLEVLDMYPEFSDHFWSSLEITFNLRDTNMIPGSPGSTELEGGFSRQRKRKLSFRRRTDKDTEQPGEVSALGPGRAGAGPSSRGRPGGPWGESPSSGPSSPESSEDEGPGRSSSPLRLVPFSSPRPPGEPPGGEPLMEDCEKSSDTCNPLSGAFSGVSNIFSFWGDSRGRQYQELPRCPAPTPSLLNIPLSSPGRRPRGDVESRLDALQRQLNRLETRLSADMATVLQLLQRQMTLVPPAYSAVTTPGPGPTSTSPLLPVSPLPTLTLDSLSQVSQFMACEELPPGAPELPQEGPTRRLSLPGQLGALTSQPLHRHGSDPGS

SMILES: CC(C)NC[C@H](O)COc1cccc2ccccc12 (racemic) [propanolol, reference compound]
Ratio (CaCo2 cell line; efflux ratio): 1.56

SMILES: CCN(CC)CCn1c(-c2ccccc2)noc1=N [GPZ646083, Imolamine]
NGAL-induced proliferation of human cardiac fibroblast cells (NGAL [1]): Inhibitory effects

SMILES: Clc1c(SCc2nc3ccccc3s2)nc2ncccn12 [GPZ564849]
Activity (NGAL [2]): 0.85 ± 0.05

SMILES: O=C(Nc1nc2cc(F)c(F)cc2s1)c1cn2cccnc2n1 [GPZ278618]
Activity (NGAL [2]): 0.86 ± 0.02

SMILES: CC(=O)c1ccc(S(=O)(=O)NC(=O)NC2CCCCC2)cc1 [GPZ706277, Acetohexamide]
NGAL-induced proliferation of human cardiac fibroblast cells (NGAL [1]): Inhibitory effects

SMILES: CCS(=O)(=O)c1ccc2oc(SCc3cn4c(C)cc(C)nc4n3)nc2c1 [GPZ058225]
NGAL-induced IL6 secretion (NGAL [2]; NGAL 10 ng/ml, FIGS. 1 and 2 panel A): inhibited
Col 1 secretion (NGAL-induced) (NGAL [3]): inhibited
NGAL-induced profibrotic marker (col1, col III, fibronectin, Gal3, OPN) synthesis (NGAL [4]): inhibited
aldosterone-induced profibrotic marker (Col1, CT-1, or IL6) synthesis [5]: inhibited
hepatotoxicity (toxicity for hepatocytes) ([6]; MTT up to 0.1 mM): > 0.1 mM
Hepatotoxicity ([6]; cell wrapped over two lines: No tox up / 100 uM): No tox up
cardiotoxicity (hERG predictor assay) (hERG channel): did not block hERG channel
Cardiotoxicity % (100 = no toxicity) (hERG channel; 100 = no toxicity): 101.73 ± 4.1%
microsomes degradation, left after 2 h (human microsomes; after 2 h): very stable
Micro Stability (human microsomes; human microsomes): 100%
fraction unbound [7]: 0.109
PPB (binding to plasma proteins) (human plasma protein): within acceptance range
inhibited the enzyme activity (CYP3A4) in a competition assay (CYP3A4): 32%
Activity (CYP3A4; human, recombinant CYP3A4 (Vivid CYP3A4 assay kit), 100 = no inhibition, read-out: CyP 3A4 Inhibition % (100 = no inhibition)): 68.1 ± 1.52%
Aquous solubility (Aqueous solubility): 63.46%
solubility in aqueous buffers (solubility test) (Aqueous solubility): 63%
Chemical Stability (Chemical stability): 92.2%
stability to acidic pH / digestive content (Chemical stability): very stable
efflux ratio [8]: 2.11
permeability through the intestinal epithelia (in words) (CaCo2 cell line; compared with reference compound propranolol): quite high

SMILES: Cc1cc(C)n2cc(CSc3nc4ccccc4[nH]3)nc2n1 [GPZ743042]
Activity (NGAL [2]): 0.94 ± 0.03

Continued, values first:

Activity (NGAL [2]): 0.92 ± 0.04
SMILES: O=S(=O)(NCc1ccccc1-n1cccn1)c1ccccc1 [GPZ595600]

Activity (NGAL [2]): 0.69 ± 0.02
SMILES: CC(=O)c1ccc(S(=O)(=O)Nc2ccccc2-n2cccn2)cc1 [GPZ478519]

Activity (NGAL [2]): 0.93 ± 0.03
SMILES: CC(=O)c1cccc(S(=O)(=O)NCc2ccccc2-c2ccsc2)c1 [GPZ863205]

NGAL-induced proliferation of human cardiac fibroblast cells (NGAL [1]): Inhibitory effects
SMILES: Nc1ccc(S(=O)(=O)Nc2ccnn2-c2ccccc2)cc1 [GPZ624624, Sulfaphenazole]

Activity (NGAL [2]): 0.93 ± 0.02
SMILES: CCN1CCN(Cc2ccccc2CNS(=O)(=O)c2cccc(C(C)=O)c2)CC1 [GPZ913629]

Activity (NGAL [2]): 0.88 ± 0.04
SMILES: N#Cc1cccc(S(=O)(=O)NCc2cccc(-n3cccn3)c2)c1 [GPZ778195]

Activity (NGAL [2]): 0.64 ± 0.02
SMILES: CC(=O)c1cccc(S(=O)(=O)NCc2ccccc2-c2ccc(CN(C)C)cc2)c1 [GPZ642292]

Activity (NGAL [2]): 0.83 ± 0.02
SMILES: CC(=O)c1cccc(S(=O)(=O)NCc2ccccc2Cn2cccn2)c1 [GPZ505884]
